These results are taken from US4377581A, “Chloro- and alkoxy-substituted-2,4-diaminoquinazolines” (Pfizer Inc., priority 1981, dated 1983).

“Also recorded” adds a separate entry of the source. Structures can show the parent of a compound that is named as a salt. Where two headings read alike, the source gives them in different places.

A short description of data set [1]: Water solubility. Format: physicochemical.
Data set [2] concerns conscious renally hypertensive dogs. Briefly: Blood pressure lowering in conscious renally hypertensive dogs, oral. Format: in vivo, dog. The method, then: The antihypertensive activity of the compounds of the invention is shown by their ability to lower the blood pressure of conscious spontaneously hypertensive rats and conscious renally hypertensive dogs, when administered orally at doses of up to 30 mg./kg.
Similarly, at the same dosage 2-[4-(2-hydroxy-2-methylprop-1-yloxycarbonyl)piperazin-1-yl]-4-amino-6-chloro-7-methoxyquinazoline, a particularly preferred compound of the invention, caused a reduction of 40 mm. Hg after one hour which increased only by 20 mm. Hg 6 hours after administration; and another particularly preferred compound: 2-[4-(2-furoyl)-1-piperazinyl]-4-amino-6-chloro-7-methoxyquinazoline effected a reduction in blood pressure of 40 mm. Hg which increased by only 5 mm. Hg six hours after the oral dose (0.2 mg./hg.) had been administered.

The conditions of data set [3]: literature; cited from earlier work.
For data set [4] the following is noted: Althuis et al., J. Med. Chem., 20, 146 (1977); cited from earlier work.
The mark [5] stands for this setting: Example 10 table, hydrochloride salts except as otherwise noted, solvent not given, read-out: Solubility.
Setting [6] is: water, hydrochloride salts, read-out: water solubility.

For the molecule `COc1ccc2c(N)nc(N3CCN(C(=O)C4CCCO4)CC3)nc2c1OC` (stereo not shown), the solubility in data set [1] (setting [5]) is 150 mg/mL.
On the same count and under the same terms, the same measure for `COc1ccc2c(N)nc(N3CCN(C(=O)c4cccs4)CC3)nc2c1OC`: 11 mg/mL; for `COc1ccc2c(N)nc(N3CCN(C(=O)c4ccccc4)CC3)nc2c1OC`: 50 mg/mL; for `COc1ccc2c(N)nc(N3CCN(C(=O)C4COc5ccccc5O4)CC3)nc2c1OC` (stereo not shown): 15 mg/mL.
Consider `COc1cc2nc(N3CCN(C(=O)c4ccco4)CC3)nc(N)c2cc1Cl` [2-[4-(2-furoyl)-1-piperazinyl]-4-amino-6-chloro-7-methoxyquinazoline], for which the “reduction in blood pressure” value in data set [2] (0.2 mg./hg. as printed, time of reduction not given) was 40 mm. Hg. In data set [2] (0.2 mg./kg.), the heart rate change entry is given as “no significant heart rate change”, the other side effect entry is “no significant heart rate change or other unwanted side effect” and the “increase (return) of the reduced blood pressure 6 hours after administration” value was 5 mm. Hg.
On to `COc1c(Cl)cc2c(N)nc(N3CCN(C(=O)OCC(C)(C)O)CC3)nc2c1OC` [2-[4-(2-hydroxy-2-methylprop-1-yloxycarbonyl)piperazin-1-yl]-4-amino-6-chloro-7,8-dimethoxyquinazoline], for which, in data set [2] (0.2 mg./kg.), the heart rate change result was “no significant change in heart rate” and the other side effect result is recorded as “no significant change in heart rate or other side effect”. Further, the “decrease of blood pressure after 4 hours” value in data set [2] (0.2 mg./kg., 4 hours, statistically significant) was 30 mm. Hg.
Consider `COc1cc2nc(N3CCN(C(=O)OCC(C)(C)O)CC3)nc(N)c2cc1Cl` [2-[4-(2-hydroxy-2-methylprop-1-yloxycarbonyl)piperazin-1-yl]-4-amino-6-chloro-7-methoxyquinazoline], for which, in data set [2] (0.2 mg./kg.), the heart rate change result is “no significant heart rate change”, the other side effect entry is “no significant heart rate change or other unwanted side effect” and the “increase (return) of the reduced blood pressure 6 hours after administration” value is 20 mm. Hg. Also, the “reduction of blood pressure after one hour” value in data set [2] (same dosage (0.2 mg./kg.), one hour) is reported as 40 mm. Hg.
For `COc1ccc2c(N)nc(N3CCN(c4cccc(C(F)(F)F)c4)CC3)nc2c1OC` [3-CF3 C6 H4], the solubility in data set [1] (setting [5]) worked out at 8 mg/mL.
Regarding `COc1cc2nc(N3CCN(C(=O)c4ccco4)CC3)nc(N)c2cc1O` [6-0-demethyl derivative], in data set [3], the “antihypertensive activity / potency” value was “considerably lower blood pressure lowering activity”. Moreover, the metabolite of prazosin result in data set [4] is given as “major metabolite of prazosin”.
With `COc1cc2c(N)nc(N3CCN(C(=O)c4ccco4)CC3)nc2cc1O` [7-0-demethyl derivative], the metabolite of prazosin result in data set [4] is “less prevalent metabolite”.
Consider `COc1ccc2c(N)nc(N3CCN(c4ccccc4)CC3)nc2c1OC` [C6 H5], for which the solubility in data set [1] (setting [5]) amounted to 25 mg/mL.
Same read-out and setting: the figure for `COc1ccc2c(N)nc(N3CCN(Cc4ccccc4)CC3)nc2c1OC` [CH2 C6 H5] is 100 mg/mL.
Same read-out and setting: the same measure for `COc1ccc2c(N)nc(N3CCN(CCO)CC3)nc2c1OC` [CH2 CH2 OH]: 95 mg/mL.
Turning to `C=CCN1CCN(c2nc(N)c3ccc(OC)c(OC)c3n2)CC1` [CH2 CHCH2], in data set [1] (setting [5]), the solubility was determined as 50 mg/mL.
`CCCOC(=O)N1CCN(c2nc(N)c3ccc(OC)c(OC)c3n2)CC1` [COO(CH2)2 CH3]: the solubility in data set [1] (setting [5]) was 140 mg/mL.
On to `COc1ccc2c(N)nc(N3CCN(C(=O)OCCC(C)C)CC3)nc2c1OC` [COO(CH2)2 CH(CH3)2], for which, in data set [1] (setting [5]), the solubility stood at 25 mg/mL.
The same measure, in the same setting: the figure for `CCCCCOC(=O)N1CCN(c2nc(N)c3ccc(OC)c(OC)c3n2)CC1` [COO(CH2)4 CH3] is 40 mg/mL.
In the case of `CCCCOC(=O)N1CCN(c2nc(N)c3ccc(OC)c(OC)c3n2)CC1` [COO(CH 2)3 CH3], the solubility in data set [1] (setting [5]) turned out to be 90 mg/mL.
On the same count and under the same terms, the same measure for `CCOC(=O)N1CCN(c2nc(N)c3ccc(OC)c(OC)c3n2)CC1` [COOCH2 CH3]: 50 mg/mL; for `COc1ccc2c(N)nc(N3CCN(C(=O)OCC(C)C)CC3)nc2c1OC` [COOCH2 CH(CH3)2]: 40 mg/mL; for `COC(=O)N1CCN(c2nc(N)c3ccc(OC)c(OC)c3n2)CC1` [COOCH3]: 40 mg/mL.
For `COc1ccc2c(N)nc(N3CCN(C(=O)c4ccco4)CC3)nc2c1OC.Cl` [Example 4, 2-[4-(2-Furoyl)piperazine-1-yl]-4-amino-7,8-dimethoxyquinazoline hydrochloride], in data set [1] (setting [6]), the solubility was 20 mg/mL.
On to `COc1c(Cl)cc2c(N)nc(N3CCN(C(=O)c4ccco4)CC3)nc2c1OC.Cl` [Example 8A, 2-[4-(2-Furoyl)piperazine-1-yl]-4-amino-6-chloro-7,8-dimethoxyquinazoline hydrochloride], for which the solubility in data set [1] (setting [6]) stood at 8 mg/mL.
Still for that read-out and setting: the figure for `COc1cc2nc(N3CCN(C(=O)c4ccco4)CC3)nc(N)c2cc1Cl.Cl` [Example 8B, 2-[4-(2-Furoyl)piperazine-1-yl]-4-amino-6-chloro-7-methoxyquinazoline hydrochloride] is 5 mg/mL.
On to `COc1c(Cl)cc2c(N)nc(N3CCN(C(=O)OCC(C)(C)O)CC3)nc2c1OC.Cl` [Example 9A, 2-Methyl-2-hydroxypropyl 4-[4-amino-6-chloro-7,8-dimethoxyquinazolin-2-yl]piperazine-1-carboxylate hydrochloride], for which, in data set [1] (setting [6]), the solubility is 35 mg/mL.
For the molecule `COc1cc2nc(N3CCN(C(=O)OCC(C)(C)O)CC3)nc(N)c2cc1Cl` [Example 9B, hydrochloride], the solubility in data set [1] (setting [6]) turned out to be 6 mg/mL.
The same measure, in the same setting: the figure for `COc1ccc2c(N)nc(N3CCCN(C(=O)c4ccco4)CC3)nc2c1OC` [Example 11, 2-[4-(2-Furoyl-homopiperazine-1-yl]-4-amino-7,8-dimethoxyquinazoline hydrochloride] is 30 mg/mL.
In the case of `COc1ccc2c(N)nc(N3CCCN(C(=O)C4CCCO4)CC3)nc2c1OC.Cl` (stereo not shown) [Example 12, 2-[4-(2-Tetrahydrofuroyl)homopiperazin-1-yl]-4-amino-7,8-dimethoxyquinazoline hydrochloride], the solubility in data set [1] (setting [6]) came out at 120 mg/mL.
On to `COc1ccc2c(N)nc(N3CCC(Cc4ccccc4)CC3)nc2c1OC.Cl` [Example 13, 2-(4-Benzylpiperidin-1-yl)-4-amino-7,8-dimethoxyquinazoline hydrochloride], for which the solubility in data set [1] (setting [6]) amounted to 6 mg/mL.
For `COc1cc2c(N)nc(N3CCN(C(=O)OCC(C)(C)O)CC3)nc2c(OC)c1OC` [Trimazosin], the “antihypertensive activity / potency” value in data set [3] was “active antihypertensive agent; also recorded: less potent than prazosin”.
As to `COc1cc2nc(N3CCN(C(=O)c4ccco4)CC3)nc(N)c2cc1OC` [prazosin, 2-[4-(2-furoyl)piperazin-1-yl]-4-amino-6,7-dimethoxyquinazoline], in data set [3], the “antihypertensive activity / potency” value is “clinically useful antihypertensive agent”.

A word on the solubility: it is the concentration that dissolves in the medium under given conditions.
